# Biological target: recombinant human LRRK2 (catalytic domain only [amino acids 970-2527], GST-tagged) (Homo sapiens (Human), UniProt Q5S007)
# Test: LRRK2 Enzymatic Assay
# Type: biochemical
# Details: LRRKtide substrate, [32P]-ATP
# Description: LRRKtide substrate (peptide sequence RLGRDKYKTLRQIRQ, derived from human ezrin [amino acids 561-573], moesin [amino acids 539-553] and radixin [amino acids 558-570], obtained from SignalChem, catalogue #L10-58, reconstituted in 20 mM Tris-HCl at pH 7.5 to a final concentration of 1 mg/mL, assay concentration 20 μM) and recombinant human LRRK2 (catalytic domain only [amino acids 970-2527], GST-tagged, expressed in insect cells, obtained from ThermoFisher Scientific, catalogue #PV4874, 0.35 mg/mL, assay concentration 30 nM) were mixed in assay buffer (20 mM Hepes pH 7.5, 10 mM MgCl2, 1 mM EGTA, 0.02% Brij35, 0.02 mg/ml BSA, 0.1 mM Na3VO4, 2 mM DTT, 1% DMSO). Compounds of interest (in DMSO, serial 3-fold dilution from 10 μM to 0.5 nM) or control (1% DMSO) were dispensed into the kinase reaction mixture by Acoustic technology (Echo550; nanoliter range). After incubation at room temperature for 20 minutes, the kinase reaction was initiated by addition of [^32P]-ATP (Specific activity 10 μCi/μl) and the mixture was incubated at room temperature for 2 hours. The reaction was then stopped by spotting the reaction mixture on strips of phosphocellulose P81 paper. Following washing, the radioactivity of the P81 paper was measured and kinase activity data were expressed as the percent remaining kinase activity in test samples compared to vehicle (dimethyl sulfoxide) reactions. IC50 values and curve fits were obtained using Prism (GraphPad Software).
# Chain of recombinant human LRRK2 (catalytic domain only [amino acids 970-2527], GST-tagged) (Q5S007 970-2527): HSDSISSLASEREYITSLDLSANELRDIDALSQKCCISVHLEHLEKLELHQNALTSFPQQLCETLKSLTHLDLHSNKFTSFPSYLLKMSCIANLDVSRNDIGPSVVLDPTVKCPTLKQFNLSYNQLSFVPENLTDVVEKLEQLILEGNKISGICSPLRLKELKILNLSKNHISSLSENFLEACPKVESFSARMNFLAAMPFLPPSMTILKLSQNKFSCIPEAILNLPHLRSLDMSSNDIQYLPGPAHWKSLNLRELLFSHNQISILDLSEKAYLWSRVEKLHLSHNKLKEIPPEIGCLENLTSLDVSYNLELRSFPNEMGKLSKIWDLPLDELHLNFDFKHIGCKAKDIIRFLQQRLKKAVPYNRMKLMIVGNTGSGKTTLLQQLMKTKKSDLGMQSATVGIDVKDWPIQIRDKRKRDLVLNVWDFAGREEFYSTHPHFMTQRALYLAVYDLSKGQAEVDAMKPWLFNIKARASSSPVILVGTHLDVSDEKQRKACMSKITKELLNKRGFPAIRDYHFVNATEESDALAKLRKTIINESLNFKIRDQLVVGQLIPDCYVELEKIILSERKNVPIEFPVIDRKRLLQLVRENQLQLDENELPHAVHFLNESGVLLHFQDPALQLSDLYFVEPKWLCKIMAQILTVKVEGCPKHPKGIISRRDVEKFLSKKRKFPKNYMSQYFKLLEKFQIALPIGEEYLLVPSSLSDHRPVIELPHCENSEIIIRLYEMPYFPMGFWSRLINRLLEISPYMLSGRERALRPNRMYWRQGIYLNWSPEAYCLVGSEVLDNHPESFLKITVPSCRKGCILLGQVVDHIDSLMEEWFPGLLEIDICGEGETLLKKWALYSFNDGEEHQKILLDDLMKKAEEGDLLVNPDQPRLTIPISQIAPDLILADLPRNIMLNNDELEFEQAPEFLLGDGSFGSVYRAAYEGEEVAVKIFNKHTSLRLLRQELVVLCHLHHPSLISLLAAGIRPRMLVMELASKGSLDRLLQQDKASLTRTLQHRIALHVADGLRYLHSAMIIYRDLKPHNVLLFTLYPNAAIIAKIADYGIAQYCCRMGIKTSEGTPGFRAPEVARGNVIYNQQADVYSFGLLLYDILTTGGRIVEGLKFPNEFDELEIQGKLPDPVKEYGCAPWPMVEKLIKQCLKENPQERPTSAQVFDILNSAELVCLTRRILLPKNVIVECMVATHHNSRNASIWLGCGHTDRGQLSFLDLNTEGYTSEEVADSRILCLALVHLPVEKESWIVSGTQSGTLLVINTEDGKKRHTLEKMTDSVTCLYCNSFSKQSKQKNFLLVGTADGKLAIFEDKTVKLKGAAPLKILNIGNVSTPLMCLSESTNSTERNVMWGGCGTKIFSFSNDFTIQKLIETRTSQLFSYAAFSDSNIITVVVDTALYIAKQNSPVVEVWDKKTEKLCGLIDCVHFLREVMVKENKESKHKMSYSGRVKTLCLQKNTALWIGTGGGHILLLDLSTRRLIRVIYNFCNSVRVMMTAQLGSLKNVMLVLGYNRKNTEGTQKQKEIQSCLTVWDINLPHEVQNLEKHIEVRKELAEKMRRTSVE
row,SMILES,IC50
1,"Cc1nn(C(C)(C)C#N)cc1Nc1ncc(F)c(OC[C@H]2CC[C@H](OC(F)F)CC2)n1 [Example 286, 2-(4-((4-(((1R,4R)-4-(difluoromethoxy)cyclohexyl)methoxy)-5-fluoropyrimidin-2-yl)amino)-3-methyl-1H-pyrazol-1-yl)-2-methylpropanenitrile]",50 to 200 nM
2,"N[C@H]1CC[C@H](COc2ccnc(Nc3ccn(CC(F)F)n3)n2)CC1 [Example 5, 4-(((1R,4R)-4-aminocyclohexyl)methoxy)-N-(1-(2,2-difluoroethyl)-1H-pyrazol-3-yl) pyrimidin-2-amine]",50 to 200 nM
3,"Cc1nn(C(C)(C)C#N)cc1Nc1ncc(F)c(OCC2CCC(OC(F)(F)F)CC2)n1 (racemic) [Example 284, 2-(4-((5-fluoro-4-((4-(trifluoromethoxy)cyclohexyl)methoxy)pyrimidin-2-yl)amino)-3-methyl-1H-pyrazol-1-yl)-2-methylpropanenitrile]",200 to 400 nM
4,"Cc1nn(C(C)(C)C#N)cc1Nc1nccc(OCC2CCC(O)CC2)n1 (stereo not drawn) [Example 119, 2-(4-((4-((4-hydroxycyclohexyl)methoxy)pyrimidin-2-yl)amino)-3-methyl-1H-pyrazol-1-yl)-2-methylpropanenitrile]",200 to 400 nM
5,"OCCn1cc(Nc2ncc(F)c(OC[C@H]3CC[C@H](O)CC3)n2)cn1 [Example 225, (1R,4R)-4-(((5-fluoro-2-((1-(2-hydroxyethyl)-1H-pyrazol-4-yl)amino)pyrimidin-4-yl)oxy)methyl)cyclohexan-1-ol]",< 50 nM
6,"Cc1nn(C(C)(C)C#N)cc1Nc1ncc(F)c(OCC2CCCC(O)CC2)n1 (single isomer, unassigned) [Example 263, 2-(4-((5-fluoro-4-((4-hydroxycycloheptyl)methoxy)pyrimidin-2-yl)amino)-3-methyl-1H-pyrazol-1-yl)-2-methylpropanenitrile]",< 50 nM
7,"CN[C@H]1CC[C@H](COc2nc(Nc3cn(C(C)(C)C#N)nc3C)ncc2C)CC1 [Example 44, 2-methyl-2-(3-methyl-4-((5-methyl-4-(((1R,4R)-4-(methylamino)cyclo-hexyl)methoxy)py-rimidin-2-yl)amino)-1H-pyrazol-1-yl)propanenitrile]",< 50 nM
8,"Cc1nn(C(C)(C)C#N)cc1Nc1ncc(F)c(OCC2CCC(F)(F)CC2)n1 [Example 270, 2-(4-((4-((4,4-difluorocyclohexyl)methoxy)-5-fluoropyrimidin-2-yl)amino)-3-methyl-1H-pyrazol-1-yl)-2-methylpropanenitrile]",50 to 200 nM
9,"CN[C@H]1CC[C@H](COc2nc(Nc3cn(C(C)(C)C#N)nc3C)ncc2OC)CC1 [Example 37, 2-(4-((5-methoxy-4-(((1R,4R)-4-(methylamino)cyclo-hexyl)methoxy)py-rimidin-2-yl)amino)-3-methyl-1H-pyrazol-1-yl)-2-methylpropanenitrile]",< 50 nM
10,"O[C@H]1CC[C@H](COc2nc(Nc3cnn(C(F)(F)F)c3)ncc2F)CC1 [Example 222, (1R,4R)-4-(((5-fluoro-2-((1-(trifluoromethyl)-1H-pyrazol-4-yl)amino)pyrimidin-4-yl)oxy)methyl)cyclohexan-1-ol]",> 400 nM
11,"O=C(N[C@H]1CC[C@H](COc2nc(Nc3cccc(N4CCOCC4)c3)ncc2Cl)CC1)C(F)F [Example 101, N-((1R,4R)-4-(((5-chloro-2-((3-morpholino-phenyl)amino)pyrimidin-4-yl)oxy)methyl)cyclohexyl)-2,2-difluoro-acetamide]",< 50 nM
12,"Fc1cnc(Nc2ccc(N3C4CCC3COC4)cc2)nc1OCC1CCNCC1(F)F (stereo not drawn) [Example 163, N-(4-(3-oxa-8-azabicyclo[3.2.1]octan-8-yl)phenyl)-4-((3,3-difluoropiperidin-4-yl)methoxy)-5-fluoropyrimidin-2-amine]",50 to 200 nM
13,"CC(=O)N[C@H]1CC[C@H](COc2nc(Nc3cnn(C)c3)ncc2F)CC1 [Example 183, N-((1R,4R)-4-(((5-fluoro-2-((1-methyl-1H-pyrazol-4-yl)amino)pyrimidin-4-yl)oxy)methyl)cyclo-hexyl)acetamide]",50 to 200 nM
14,"C[C@@H]1CN(c2ccc(Nc3ncc(F)c(OCC4CCC(C#N)CC4)n3)cc2)C[C@H](C)O1 (mixture of isomers) [Example 273, 4-(((2-((4-((2S,6R)-2,6-dimethylmorpholino)phenyl)amino)-5-fluoropyrimidin-4-yl)oxy)methyl)cyclohexane-1-carbonitrile]",< 50 nM
15,"Cc1nn(C(C)(C)C#N)cc1Nc1ncc(Cl)c(OCC2COC2)n1 [Example 158, 2-(4-((5-chloro-4-(oxetan-3-ylmethoxy)pyrimidin-2-yl)amino)-3-methyl-1H-pyrazol-1-yl)-2-methylpropanenitrile]",50 to 200 nM
16,"CCO[C@H]1CC[C@@H](COc2nc(Nc3cn(C(C)(C)C#N)nc3C)ncc2F)CC1 [Example 277, 2-(4-((4-(((1s,4s)-4-ethoxycyclohexyl)methoxy)-5-fluoropyrimidin-2-yl)amino)-3-methyl-1H-pyrazol-1-yl)-2-methylpropanenitrile]",< 50 nM
17,"Cc1nn(C(C)(C)C#N)cc1Nc1ncc(F)c(OCC2CCC(O)(C(F)(F)F)CC2)n1 (stereo not drawn) [Example 262, 2-(4-((5-fluoro-4-((4-hydroxy-4-(trifluoromethyl)cyclohexyl)methoxy)pyrimidin-2-yl)amino)-3-methyl-1H-pyrazol-1-yl)-2-methylpropanenitrile]",50 to 200 nM
18,"COc1nn(C(C)C)cc1Nc1ncc(F)c(OC[C@H]2CC[C@H](NC(C)=O)CC2)n1 [Example 207, N-((1R,4R)-4-(((5-fluoro-2-((1-isopropyl-3-methoxy-1H-pyrazol-4-yl)amino)pyrimidin-4-yl)oxy)methyl)cyclo-hexyl)acetamide]",50 to 200 nM
19,"Cc1nn(C(C)(C)C#N)cc1Nc1ncc(Cl)c(OCC2CCC(NC3CC(F)(F)C3)CC2)n1 (stereo not drawn) [Example 145, 2-(4-((5-chloro-4-((4-((3,3-difluorocyclobutyl)amino)cyclohexyl)methoxy)pyrimidin-2-yl)amino)-3-methyl-1H-pyrazol-1-yl)-2-methylpropanenitrile]",< 50 nM
20,"Cc1nn(C(C)(C)C#N)cc1Nc1ncc(Cl)c(OCC2CC(C)OC(C)C2)n1 (stereo not drawn) [Example 149, 2-(4-((5-chloro-4-((2,6-dimethyltetrahydro-2H-pyran-4-yl)methoxy)pyrimidin-2-yl)amino)-3-methyl-1H-pyrazol-1-yl)-2-methylpropanenitrile]",< 50 nM

# Now from value to compound:
row,IC50,SMILES
1,< 50 nM,"CN1CCC(COc2nc(Nc3ccc(N4CCOCC4)cc3)ncc2Cl)CC1 [Example 56, 5-chloro-4-((1-methylpiperidin-4-yl)methoxy)-N-(4-morpholinophenyl)py-rimidin-2-amine]"
2,< 50 nM,"O[C@H]1CC[C@H](COc2nc(Nc3ccc(N4CC5(CCOC5)C4)cc3)ncc2F)CC1 [Example 215, (1R,4R)-4-(((2-((4-(6-oxa-2-azaspiro[3.4]octan-2-yl)phenyl)amino)-5-fluoropyrimidin-4-yl)oxy)methyl)cyclohexan-1-ol]"
3,50 to 200 nM,"C[C@@H]1CN(c2ccc(Nc3ncc(F)c(OCC4CCC(O)(C(F)(F)F)CC4)n3)cc2)C[C@H](C)O1 (stereo partly drawn) [Example 261, 4-(((2-((4-((2S,6R)-2,6-dimethylmorpholino)phenyl)amino)-5-fluoropyrimidin-4-yl)oxy)methyl)-1-(trifluoromethyl)cyclohexan-1-ol]"
4,< 50 nM,"C[C@@H]1CN(c2ccc(Nc3ncc(F)c(OCC4CCC(C)(O)CC4)n3)cc2)C[C@H](C)O1 (stereo partly drawn) [Example 252, 4-(((2-((4-((2S,6R)-2,6-dimethylmorpholino)phenyl)amino)-5-fluoropyrimidin-4-yl)oxy)methyl)-1-methylcyclohexan-1-ol]"
5,< 50 nM,"Clc1cnc(Nc2ccc(N3CCOCC3)cc2)nc1OCC1CCCCC1 [Example 147, 5-chloro-4-(cyclohexylmethoxy)-N-(4-morpholinophenyl)pyrimidin-2-amine]"
6,< 50 nM,"N[C@H]1CC[C@@H](COc2nc(Nc3ccc(N4CCOCC4)cc3)ncc2Cl)C1 [Example 16, 4-(((1R,3S)-3-aminocyclopentyl)methoxy)-5-chloro-N-(4-morpholinophenyl) pyrimidin-2-amine]"
7,50 to 200 nM,"C[C@@H]1CN(c2ccc(Nc3ncc(F)c(OCC4CCNCC4F)n3)cc2)C[C@H](C)O1 (single isomer, unassigned) [Example 168]"
8,< 50 nM,"NC[C@H]1CC[C@H](COc2nc(Nc3ccc(N4CCOCC4)cc3)ncc2Cl)CC1 [Example 14, 4-(((1R,4R)-4-(aminomethyl)cyclohexyl)methoxy)-5-chloro-N-(4-morpholinophenyl) pyrimidin-2-amine]"
9,< 50 nM,"CC(C)(O)[C@H]1CC[C@H](COc2nc(Nc3ccc(N4CCOCC4)cc3)ncc2Cl)CC1 [Example 137, 2-((1R,4R)-4-(((5-chloro-2-((4-morpholinophenyl)amino)pyrimidin-4-yl)oxy)methyl)cyclohexyl)propan-2-ol]"
10,< 50 nM,"Fc1cnc(Nc2ccc(N3CCOCC3)cc2)nc1OCC1CCNCC1(F)F (stereo not drawn) [Example 29, 4-((3,3-difluoropiperidin-4-yl)methoxy)-5-fluoro-N-(4-morpholinophenyl) pyrimidin-2-amine]"

# Source: patent US11578061B2, “Inhibitors of LRRK2 kinase” (Halia Therapeutics, Inc., priority 2021, dated 2023)
